According to US20230140983A1, “PYRIDAZINE DERIVATIVES FOR MODULATING NUCLEIC ACID SPLICING” (REMIX THERAPEUTICS INC., priority 2020, published 2023):
Read-outs that look alike come from different tables or passages of the source.

What was measured:
Format in all cases: cell-based
[1] = system: HTT; experiment: Splicing assay (RT-qPCR on cell lysates) monitoring HTT splice variants: AJ and CJ mRNA; conditions: Table 8, concentration having 50% response
Method in brief: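 Cell lysates were analysed by RT-qPCR, with ΔCt taken against a housekeeping gene and normalised to DMSO to give RQ by 2^(−ΔΔCt). Assay windows were set at 9 ΔCt for AJ and 3.5 ΔCt for CJ, and 4-parameter fits gave AC50 for the AJ increase and IC50 for the CJ decrease.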

[2] = system: HTT; experiment: Gene panel canonical junction qPCR assay, HTT CJ mRNA; conditions: Table 9, CJ mRNA decrease, read-out: HTT IC50 (decrease in CJ mRNA levels)
Method: (§1) To set up 10 uL RT-qPCR reactions, cell lysates were transferred to 384-well qPCR plates containing the master mix according to the table below. The plates were sealed, gently vortexed, and spun down before the run. The volumes were adjusted accordingly in some instances where the reaction was carried in 20 uL. The table below summarizes the components of the RT-qPCR reactions:
(§2) The RT-qPCR reaction was performed using a QuantStudio (ThermoFisher) under the following fast cycling conditions. All samples and standards were analyzed at least in duplicate. In some instances, bulk room temperature (RT) step of 5-10 minutes was completed for all plates before proceeding with qPCR. The table below summarizes the PCR cycle:
(§3) The data analysis was performed by first determining the ΔCt vs the housekeeper gene. This ΔCt was then normalized against the DMSO control (ΔΔCt) and converted to RQ (relative quantification) using the 2^(−ΔΔCt) equation. The RQ were then converted to a percentage response by arbitrarily setting an assay window of 3.5 ΔCt for HTT-CJ and an assay window of 9 ΔCt for HTT-AJ. […] The percentage response was then fitted to the 4 parametric logistic equation to evaluate the concentration dependence of compound treatment. The increase in AJ mRNA is reported as AC50 (compound concentration having 50% response in AJ increase) while the decrease in CJ mRNA levels is reported as IC50 (compound concentration having 50% response in CJ decrease).
(§4) Additional studies were carried out for a larger panel of genes using the protocol provided above. The junction between flanking upstream and downstream exons was used to design canonical junction qPCR assays. At least one of the forward primer, reverse primer or the CY5-labeled 5′ nuclease probe (with 3′ quencher such as ZEN/Iowa Black FQ) was designed to overlap with the exon junction to capture the CJ mRNA transcript. BLAST was used to confirm the specificity of the probeset and parameters such as melting temperature, GC content, amplicon size, and primer dimer formation are considered during their design. Data for the decrease in CJ mRNA levels for three exemplary genes (HTT, SMN2, and Target C) analyzed in this panel are reported as IC50 (compound concentration having 50% response in CJ decrease).

[3] = system: SMN2; experiment: Gene panel canonical junction qPCR assay, SMN2 CJ mRNA; conditions: Table 9, CJ mRNA decrease, read-out: SMN2 IC50 (decrease in CJ mRNA levels)
Method: as §1, §2, §3, §4

[4] = system: Target C; experiment: Gene panel canonical junction qPCR assay, Target C CJ mRNA; conditions: Table 9, CJ mRNA decrease, read-out: Target C IC50 (decrease in CJ mRNA levels)
Method: as §1, §2, §3, §4

[5] = decrease in CJ mRNA, read-out: HTT CJ AC50
[6] = increase in AJ mRNA, read-out: HTT AJ AC50

IC50 [2] [µM]	IC50 [3] [µM]	IC50 [4] [µM]	SMILES	AC50 [1, 5] [µM]	AC50 [1, 6] [µM]
> 10	1 to 10	> 10	c1n[nH]cc1-c1ccc(-c2ccc(OC3CCNCC3)nn2)c2[nH]ncc12 [Compound 230]	> 10	> 10
1 to 10	0.1 to 1	1 to 10	Cn1cc(-c2ccc(-c3ccc(OC4CC(C)(C)NC(C)(C)C4)nn3)c3[nH]ncc23)cn1 [Compound 232, 4-(1-methylpyrazol-4-yl)-7-{6-[(2,2,6,6-tetramethylpiperidin-4-yl)oxy]pyridazin-3-yl}-1H-indazole]	1 to 10	0.1 to 1
